Source: patent US10231954B2, “Neurodegenerative therapies” (LYTIX BIOPHARMA AS, priority 2014, dated 2019)
Where two headings read alike, the source gives them in different places.

What was measured:
Format in all cases: biochemical
[1] = target: T1, p38g MAPK (Homo sapiens, UniProt P53778); experiment: Kinase profiling p38g MAPK; conditions: for remaining activity at 100 µM: read-out: residual kinase activity, p38g MAPK
T1 sequence (P53778 1-367): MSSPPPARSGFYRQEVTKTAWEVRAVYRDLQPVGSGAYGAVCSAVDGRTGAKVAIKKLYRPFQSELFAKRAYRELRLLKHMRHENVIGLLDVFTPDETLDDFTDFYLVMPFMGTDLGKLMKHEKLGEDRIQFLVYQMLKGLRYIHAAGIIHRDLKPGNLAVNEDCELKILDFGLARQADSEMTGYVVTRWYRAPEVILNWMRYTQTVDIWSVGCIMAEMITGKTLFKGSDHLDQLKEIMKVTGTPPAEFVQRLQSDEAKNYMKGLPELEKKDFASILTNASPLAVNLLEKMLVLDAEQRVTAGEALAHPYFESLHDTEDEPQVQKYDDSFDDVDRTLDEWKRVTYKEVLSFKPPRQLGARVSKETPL
Excerpt: (§1) Any value less that 25 is considered to be highly significant inhibition.

[2] = target: PKBb (Homo sapiens, UniProt P31751); experiment: Kinase profiling PKBb; conditions: for remaining activity at 100 µM: read-out: residual kinase activity, PKBb; for residual kinase activity, PKBb: 100 micromolar inhibitor concentration, 100 is no change
Excerpt: as §1

[3] = target: T2, SGK1 (Homo sapiens, UniProt O00141); experiment: Kinase profiling SGK1; conditions: for remaining activity at 100 µM: read-out: residual kinase activity, SGK1
T2 sequence (O00141 1-431): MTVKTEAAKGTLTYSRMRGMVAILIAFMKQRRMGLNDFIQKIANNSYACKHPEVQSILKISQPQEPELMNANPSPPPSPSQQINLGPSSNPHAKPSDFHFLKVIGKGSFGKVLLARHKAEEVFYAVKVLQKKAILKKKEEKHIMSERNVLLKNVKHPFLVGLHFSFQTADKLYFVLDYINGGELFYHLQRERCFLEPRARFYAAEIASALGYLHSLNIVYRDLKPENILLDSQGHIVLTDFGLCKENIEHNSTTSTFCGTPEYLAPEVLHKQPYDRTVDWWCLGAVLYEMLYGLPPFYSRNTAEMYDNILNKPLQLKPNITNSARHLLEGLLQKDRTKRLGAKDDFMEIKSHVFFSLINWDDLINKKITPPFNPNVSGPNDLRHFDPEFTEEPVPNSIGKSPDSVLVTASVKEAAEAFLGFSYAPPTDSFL
Excerpt: as §1

[4] = target: STK33 (Homo sapiens, UniProt Q9BYT3); experiment: Kinase profiling STK33; conditions: for remaining activity at 100 µM: read-out: residual kinase activity, STK33
Excerpt: as §1

[5] = target: DYRK1A (Homo sapiens, UniProt Q13627); experiment: DYRK 1A assay (kinase profiling); conditions: for remaining activity at 100 µM: read-out: residual kinase activity, DYRK1A
Protocol: Assays are stopped by addition of 5 μl of 0.5 M (3%) orthophosphoric acid and then harvested onto P81 Unifilter plates with a wash buffer of 50 mM orthophosphoric acid.
as §1

[6] = target: T3, MST2 (Homo sapiens, UniProt Q13188); experiment: Kinase profiling MST2; conditions: for remaining activity at 100 µM: read-out: residual kinase activity, MST2
T3 sequence (Q13188 1-491): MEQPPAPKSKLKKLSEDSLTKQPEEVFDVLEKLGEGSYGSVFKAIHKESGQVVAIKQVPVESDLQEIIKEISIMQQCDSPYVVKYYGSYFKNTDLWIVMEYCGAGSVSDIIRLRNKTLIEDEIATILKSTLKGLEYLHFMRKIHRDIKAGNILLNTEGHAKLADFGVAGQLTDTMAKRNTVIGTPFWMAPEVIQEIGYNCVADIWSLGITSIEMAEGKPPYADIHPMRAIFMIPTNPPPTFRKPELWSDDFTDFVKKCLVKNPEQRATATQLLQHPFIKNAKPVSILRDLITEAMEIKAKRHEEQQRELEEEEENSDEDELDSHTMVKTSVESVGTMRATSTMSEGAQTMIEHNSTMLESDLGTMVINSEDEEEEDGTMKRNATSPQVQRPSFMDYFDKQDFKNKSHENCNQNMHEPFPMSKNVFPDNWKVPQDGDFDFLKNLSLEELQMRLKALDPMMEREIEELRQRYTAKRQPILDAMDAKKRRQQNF
Excerpt: as §1

[7] = target: T4, IRAK4 (Homo sapiens, UniProt Q9NWZ3); experiment: Kinase profiling IRAK4; conditions: for remaining activity at 100 µM: read-out: residual kinase activity, IRAK4
T4 sequence (Q9NWZ3 1-460): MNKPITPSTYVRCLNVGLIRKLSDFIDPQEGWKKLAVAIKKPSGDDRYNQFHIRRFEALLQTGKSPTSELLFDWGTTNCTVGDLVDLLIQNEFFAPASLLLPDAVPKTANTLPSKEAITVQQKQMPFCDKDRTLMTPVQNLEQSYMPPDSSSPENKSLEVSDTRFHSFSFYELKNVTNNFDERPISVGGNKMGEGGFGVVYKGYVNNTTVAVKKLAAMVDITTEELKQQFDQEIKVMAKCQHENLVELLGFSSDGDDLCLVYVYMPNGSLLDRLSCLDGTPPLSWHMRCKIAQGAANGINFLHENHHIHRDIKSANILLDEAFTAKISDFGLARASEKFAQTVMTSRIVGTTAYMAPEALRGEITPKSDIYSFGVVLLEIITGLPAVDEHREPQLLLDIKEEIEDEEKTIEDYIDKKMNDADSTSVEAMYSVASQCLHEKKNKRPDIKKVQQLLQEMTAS
Excerpt: as §1

[8] = target: T5, TTK (Homo sapiens, UniProt P33981); experiment: Kinase profiling TTK; conditions: for remaining activity at 100 µM: read-out: residual kinase activity, TTK
T5 sequence (P33981 1-857): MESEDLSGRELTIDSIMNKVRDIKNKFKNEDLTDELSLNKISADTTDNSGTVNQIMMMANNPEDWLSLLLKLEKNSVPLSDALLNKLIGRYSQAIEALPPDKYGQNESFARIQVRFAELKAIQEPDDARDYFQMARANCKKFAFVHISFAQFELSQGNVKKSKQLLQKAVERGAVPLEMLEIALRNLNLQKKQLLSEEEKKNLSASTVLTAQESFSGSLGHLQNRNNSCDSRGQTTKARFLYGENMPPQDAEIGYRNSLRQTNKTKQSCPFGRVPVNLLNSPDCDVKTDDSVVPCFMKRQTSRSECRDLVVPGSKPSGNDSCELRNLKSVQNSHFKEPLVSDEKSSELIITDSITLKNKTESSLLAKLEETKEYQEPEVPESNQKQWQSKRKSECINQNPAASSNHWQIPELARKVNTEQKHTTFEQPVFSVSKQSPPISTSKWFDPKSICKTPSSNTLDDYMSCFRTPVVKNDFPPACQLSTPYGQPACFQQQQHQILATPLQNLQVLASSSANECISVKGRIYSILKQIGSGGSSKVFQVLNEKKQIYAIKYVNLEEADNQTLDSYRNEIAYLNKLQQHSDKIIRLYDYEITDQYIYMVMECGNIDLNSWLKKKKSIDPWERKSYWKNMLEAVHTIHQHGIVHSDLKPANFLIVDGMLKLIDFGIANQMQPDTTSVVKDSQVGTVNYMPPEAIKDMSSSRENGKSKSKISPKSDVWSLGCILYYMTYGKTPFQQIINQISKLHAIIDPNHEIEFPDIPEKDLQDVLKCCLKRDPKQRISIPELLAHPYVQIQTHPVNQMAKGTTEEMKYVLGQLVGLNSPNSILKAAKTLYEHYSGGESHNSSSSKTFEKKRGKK
Excerpt: as §1

[9] = 100 micromolar inhibitor concentration, 100 is no change
[10] = 100 micromolar inhibitor, 100 = no change

Sequence of STK33 (Q9BYT3 whole entry, species assumed): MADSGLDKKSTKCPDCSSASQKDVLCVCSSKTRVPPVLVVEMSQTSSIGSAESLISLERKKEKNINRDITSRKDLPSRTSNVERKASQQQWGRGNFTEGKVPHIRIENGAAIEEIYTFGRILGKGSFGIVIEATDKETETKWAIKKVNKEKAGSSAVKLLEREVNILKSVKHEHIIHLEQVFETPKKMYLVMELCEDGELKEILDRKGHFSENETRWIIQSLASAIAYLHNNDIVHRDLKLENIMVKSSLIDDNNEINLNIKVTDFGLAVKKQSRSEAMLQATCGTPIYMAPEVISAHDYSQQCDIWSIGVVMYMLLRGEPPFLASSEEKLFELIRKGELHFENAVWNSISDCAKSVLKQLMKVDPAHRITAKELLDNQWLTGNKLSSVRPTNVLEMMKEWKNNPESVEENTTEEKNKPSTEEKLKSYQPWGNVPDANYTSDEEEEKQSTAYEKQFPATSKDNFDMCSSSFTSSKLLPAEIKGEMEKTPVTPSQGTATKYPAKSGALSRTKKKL
Sequence of PKBb (P31751 whole entry): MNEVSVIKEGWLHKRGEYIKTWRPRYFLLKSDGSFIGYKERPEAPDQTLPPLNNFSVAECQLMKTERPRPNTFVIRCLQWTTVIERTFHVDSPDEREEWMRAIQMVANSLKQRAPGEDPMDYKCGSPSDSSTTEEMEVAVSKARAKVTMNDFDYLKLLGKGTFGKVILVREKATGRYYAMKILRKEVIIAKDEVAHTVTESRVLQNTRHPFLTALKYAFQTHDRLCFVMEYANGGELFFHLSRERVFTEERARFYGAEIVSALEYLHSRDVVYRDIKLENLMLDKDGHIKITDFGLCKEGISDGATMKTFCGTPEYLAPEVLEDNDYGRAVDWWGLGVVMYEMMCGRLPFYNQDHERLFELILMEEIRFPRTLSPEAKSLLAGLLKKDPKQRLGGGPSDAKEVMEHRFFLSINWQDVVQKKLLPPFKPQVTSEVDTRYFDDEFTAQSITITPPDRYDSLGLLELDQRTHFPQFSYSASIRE

Work on `CC(=O)Nc1nc2cc(O)ccc2s1` [Compound 01-66, N-(5-hydroxybenzo[d]thiazol-2-yl)acetamide] yielded a remaining activity at 100 µM [1] of 46%, a remaining activity at 100 µM [2] of 55% and a remaining activity at 100 µM [3] of 77%. It also gave a remaining activity at 100 µM [4] of 52%, a remaining activity at 100 µM [5] of 5% and a remaining activity at 100 µM [6] of 69%. For the same molecule, the remaining activity at 100 µM [7] was 18% and the remaining activity at 100 µM [8] was 39%.

With `CC(=O)Nc1nc2ccc(O)cc2s1` [Compound 01-71] the remaining activity at 100 µM [1, 9] was 84%, the remaining activity at 100 µM [2] was 57% and the remaining activity at 100 µM [3, 9] was 33%. It also gave a remaining activity at 100 µM [4, 9] of 41%, a remaining activity at 100 µM [5, 9] of 20% and a remaining activity at 100 µM [6, 9] of 56%. The remaining activity at 100 µM [7, 9] was 13% and the remaining activity at 100 µM [8, 9] was 31%.

Molecule `CC(=O)Nc1nc2ccc(C(F)(F)F)cc2s1` [Compound 01-90] has a remaining activity at 100 µM [1, 9] of 101%, a remaining activity at 100 µM [2] of 100% and a remaining activity at 100 µM [3, 9] of 69%. It also gave a remaining activity at 100 µM [4, 9] of 46%, a remaining activity at 100 µM [5, 9] of 8% and a remaining activity at 100 µM [6, 9] of 99%. It also gave a remaining activity at 100 µM [7, 9] of 12% and a remaining activity at 100 µM [8, 9] of 49%.

`CC(=O)Nc1nc2ccc(C#N)cc2s1` [Compound 01-94] gave a remaining activity at 100 µM [1, 9] of 82%, a remaining activity at 100 µM [2] of 98% and a remaining activity at 100 µM [3, 9] of 40%. For the same molecule, the remaining activity at 100 µM [4, 9] was 35%, the remaining activity at 100 µM [5, 9] was 9% and the remaining activity at 100 µM [6, 9] was 56%. The remaining activity at 100 µM [7, 9] was 10% and the remaining activity at 100 µM [8, 9] was 33%.

`CC(=O)Nc1cccc(NC(=O)c2nc3ccc(O)cc3s2)c1` [Compound 03-07, N-(3-acetamidophenyl)-6-hydroxybenzo[d]thiazole-2-carboxamide] gave a remaining activity at 100 µM [1, 10] of 93%, a remaining activity at 100 µM [2, 10] of 26% and a remaining activity at 100 µM [3, 10] of 64%. The remaining activity at 100 µM [4, 10] was 63%, the remaining activity at 100 µM [5, 10] was 30% and the remaining activity at 100 µM [6, 10] was 68%. For the same molecule, the remaining activity at 100 µM [7, 10] was 74% and the remaining activity at 100 µM [8, 10] was 28%.

For `O=C(Nc1nc2cc(O)ccc2s1)c1ccncc1` [Compound 03-11], the “residual kinase activity, p38g MAPK” value [1, 9] was 93, the “residual kinase activity, PKBb” value [2] was 82 and the “residual kinase activity, SGK1” value [3, 9] was 84. For the same molecule, the “residual kinase activity, STK33” value [4, 9] was 77, the “residual kinase activity, DYRK1A” value [5, 9] was 50 and the “residual kinase activity, MST2” value [6, 9] was 84. For the same molecule, the “residual kinase activity, IRAK4” value [7, 9] was 69 and the “residual kinase activity, TTK” value [8, 9] was 74.

With `O=C(Nc1nc2ccc(O)cc2s1)c1ccccn1` [Compound 03-12] the “residual kinase activity, p38g MAPK” value [1, 9] was 89, the “residual kinase activity, PKBb” value [2] was 61 and the “residual kinase activity, SGK1” value [3, 9] was 88. The “residual kinase activity, STK33” value [4, 9] was 65, the “residual kinase activity, DYRK1A” value [5, 9] was 33 and the “residual kinase activity, MST2” value [6, 9] was 61. For the same molecule, the “residual kinase activity, IRAK4” value [7, 9] was 54 and the “residual kinase activity, TTK” value [8, 9] was 36.

In the case of `CC(=O)Nc1cccc(C(=O)Nc2nc3ccc(O)cc3s2)c1` [Compound 03-58], the “residual kinase activity, p38g MAPK” value [1, 9] is reported as 64, the “residual kinase activity, PKBb” value [2] is reported as 80 and the “residual kinase activity, SGK1” value [3, 9] is reported as 41. For the same molecule, the “residual kinase activity, STK33” value [4, 9] was 45.

For `CC(=O)NC(C)C(=O)Nc1nc2ccc(C(F)(F)F)cc2s1` (stereo not drawn) [Compound 03-80], the “residual kinase activity, p38g MAPK” value [1, 9] was 83, the “residual kinase activity, PKBb” value [2] was 93 and the “residual kinase activity, SGK1” value [3, 9] was 55. For the same molecule, the “residual kinase activity, STK33” value [4, 9] was 60.

In the case of `CC(=O)Nc1ccccc1C(=O)Nc1nc2ccc(O)cc2s1` [Compound 08-39], the “residual kinase activity, p38g MAPK” value [1, 9] is reported as 90, the “residual kinase activity, PKBb” value [2] is reported as 4 and the “residual kinase activity, SGK1” value [3, 9] is reported as 35. For the same molecule, the “residual kinase activity, STK33” value [4, 9] was 61.

With `COc1ccc2sc(NC(=O)c3ccc(NC(C)=O)cc3)nc2c1` [MS:LY-2-77] the “residual kinase activity, p38g MAPK” value [1, 9] was 121, the “residual kinase activity, PKBb” value [2] was 44 and the “residual kinase activity, SGK1” value [3, 9] was 101. The “residual kinase activity, STK33” value [4, 9] was 99.

With `COc1ccc2sc(NC(=O)c3cccc(NC(C)=O)c3)nc2c1` [MS:LY-2-85] the “residual kinase activity, p38g MAPK” value [1, 9] was 80, the “residual kinase activity, PKBb” value [2] was 22 and the “residual kinase activity, SGK1” value [3, 9] was 75. For the same molecule, the “residual kinase activity, STK33” value [4, 9] was 75.

`CC(=O)Nc1ccc(C(=O)Nc2nc3cc(O)ccc3s2)cc1` [MS:LY-2-87] was tested, and the “residual kinase activity, p38g MAPK” value [1, 9] was 93, the “residual kinase activity, PKBb” value [2] was 18 and the “residual kinase activity, SGK1” value [3, 9] was 43. The “residual kinase activity, STK33” value [4, 9] was 51.

With `CC(=O)Nc1cccc(C(=O)Nc2nc3cc(O)ccc3s2)c1` [MS:LY-2-89] the “residual kinase activity, p38g MAPK” value [1, 9] was 64, the “residual kinase activity, PKBb” value [2] was 7 and the “residual kinase activity, SGK1” value [3, 9] was 28. The “residual kinase activity, STK33” value [4, 9] was 37.
